{"source": "patent US20250213700A1", "about": "“COMPOUNDS, COMPOSITIONS, AND METHODS FOR CELL-SPECIFIC PHARMACOLOGY” (Duke University, priority 2022, published 2025)", "test_system": "AMPAR", "assay": "whole-mount retina, AMPAR-mediated evoked EPSC in retinal ganglion cells", "format": "cell-based, mouse", "settings": "300 nM, 15 min", "protocol": "(FIG. 6A) Viral strategy (top panel). […] Experimental overview (second panel from the top to bottom panel). Top: whole retina; synaptic current is evoked (stim) and recorded (voltage-clamp of dTomato+ RGC), with ionic and pharmaceutical conditions chosen to isolate the AMPAR or GABAAR. A 10 min baseline is followed by 15 min application of 300 nM Rx^DART.2+30 nM Alexa^647.1DART.2. […] (FIG. 6B) CMPDA.2^DART.2 (left). Electropositive spacer (PDB 3RNN). […] AMPAR structural model (middle) (composite of PDB 5WEO, 3RNN, and 1FTL). Cylinder depicts cell membrane. […] YM90K.1^DART.2 (right). Structural model (PDB 1FTL). […] (FIG. 6C) diazepam.1^DART.2 (left). Structural model (PDB 6HUP). […] GABAAR (middle) structural model (composite of PDB 6HUP and 6HUK). […] Structural model (PDB 6HUK).\nPreparation of Retina: Mice were intravitreal injected AAV10 HaloTag™-dTomato to eyes. After 8-12 weeks, the mice killed by cervical dislocation. Both eyes were removed and dissected under a stereo-microscope. Retinas were isolated from the eyecups and placed in oxygenated (95% O2/5% CO2) cold-Ames medium (Sigma-Aldrich), supplemented with 21 mM NaHCO3. After the vitreous body was removed, a retina was cut into 3 pieces, leaving each retina piece attached to a filter paper with 2 mm hole by retina ganglion-cell-side-down. The pieces of retina were stored in bubbled Ames solution at room temperature, then transferred to recording chamber with retina ganglion-cell-side-up for recording.\nWhole-cell patch-clamp recording: The brain slices or retinas were perfused with bubbled aCSF at 29-30° C. with a 2 ml/min flow rate. Recordings were made by whole cell patch recording techniques using a Multiclamp 700B amplifier (Molecular Devices, Axon Instruments Inc., Union City, CA). The signals were filtered at 10 KHz and acquired using Digitate 1440A and pClamp 10.7 (Molecular Devices). The recording pipettes (4 MΩ-6 MΩ) were filled with internal solutions. For GABAA receptor-mediated evoked inhibitory postsynaptic currents ([…]) recording, the pipettes filled with Cesium Chloride-based internal solution (in mM) 135 CsCl, 2 MgCl2, 0.5 EGTA, 10 HEPES, 4 Mg-ATP, 0.5 Na-GTP, 10 Na2-phosphocreatine, and QX314 (lidocaine N-ethyl bromide), pH adjusted to 7.3 with CsOH (290 mosm). For AMPA-receptor mediated evoked excitatory postsynaptic currents (eEPSCs) recording, the pipette solution contained (in mM) 130 CsMeS, 1 MgCl2, 0.5 EGTA, 10 HEPES, 4 Mg-ATP, 0.5 Na-GTP, 10 Na2-phosphocreatine, and 4 QX314, pH adjusted to 7.3 with CsOH (290 mosm). For experiment of brain slices and retinas, the eIPSCs or eEPSCs were elicited by electrical stimuli at 0.067 Hz in 0.3-ms duration and 150-300-ρA (60-70% maximum responses) stimulation intensity at a holding potential of −70 mV. The stimulating electrode was placed within 60-100 μm from the recording neuron under voltage-clamp mode. GABA-receptor mediated eIPSCs were isolated in the presence of DNQX ([…] AMPAR antagonist) and AP-V ([…] antagonist) in the bath solution. For AMPA-receptor mediated eEPSCs, added picrotoxin ([…], GABAAR antagonist) and AP-V ([…]) to the bath solution."}
{"compound": "COc1cc(CCCCl)ccc1CCOCCNC(=O)c1ccc(CNC(=O)CCOCCOCCOCCOCCOCCOCCOCCOCCOCCOCCOCCOCCOCCOCCOCCOCCOCCOCCOCCOCCOCCOCCOCCOCCOCCOCCOCCOCCOCCOCCOCCOCCOCCOCCOCCOCCn2cc(COCCOCCOCCOCCOCCOCCNC(=O)CCCn3c(=O)c(=O)[nH]c4cc([N+](=O)[O-])c(-n5ccnc5)cc43)nn2)cc1", "note": "[YM90K.1DART.2]", "values": [{"measurement": "AMPAR evoked EPSC block, +HTP cells", "result": "blocked the AMPAR-mediated EPSC"}, {"measurement": "AMPAR evoked EPSC block, +HTP cells", "setting": "listed as YM90K.1^DART.2", "result": "blocked on ^+HTP cells"}]}
